Test results as given in patent US9901571B2, “Tetrahydropyrazolopyridine derivatives as ghrelin receptor agonists” (RaQualia Pharma Inc., priority 2014, dated 2018).

What was measured:
[1] = target: T1, human ghrelin receptor (Homo sapiens, UniProt Q92847); assay: Ghrelin receptor agonistic activity induced Ca2+ influx in HEK293 cells stably expressing human ghrelin receptor; type: cell-based; details: 11-point dose-response
T1 construct: expressed in transfected cells; host or cells: HEK293
Experimental: Measurement of the ghrelin receptor agonistic activity induced Ca^2+ influx in HEK293 cells stably expressing human ghrelin receptor
HEK293 cells stably expressing human ghrelin receptor are maintained in Dulbecco's modified Eagle medium (high glucose) supplemented with 10% fetal bovine serum, 100 units/mL penicillin, 100 microg/mL streptomycin and 500 microg/mL G418 at 37° C. in a humidified incubator with 5% CO2 and grown to 60-80% confluence. The day before the assay, the cells are seeded on poly-D-lysine coated 384-well plates (BD FALCON) at a density of 10,000 cells per well and incubated overnight in incubator.
On the day of the assay, the cells are washed at three times with assay buffer (Hanks' balanced salt solution with 20 mM HEPES, pH7.4), and are incubated for 1 hour at room temperature to load 0.5 microM Fluo-4 AM reagent (Invitrogen).
After removing Fluo-4, and washing with assay buffer, the cells are added with various concentrations of the compounds. The changes in intracellular calcium concentration are monitored with the fluorescence imaging plate reader, FDSS6000 (Hamamatsu Photonics).
The EC50 values for compounds of the present invention are determined from 11-point dose-response studies. Curves are generated using the average of duplicate wells for each data point. Finally, the EC50 values are calculated using the best-fit dose curve determined by XLfit (ID Business Solutions Ltd).

[2] = Half-life in human liver microsomes (HLM), HLM CLint; type: in vitro ADME; details: for CLint scaled at 1 microM: human, human liver microsomes (XTreme 200), 1 microM test compound, 0.61 mg protein/mL HLM, pH 7.4, 37° C., read-out: HLM CLint (clearance in human liver microsome); for Ratio of HLM CLint over comparison 1: ratio between comparison compound 1 and the example
Experimental: Half-Life in Human Liver Microsomes (HLM)
Test compounds (1 microM) are incubated with 1 mM MgCl2 and 0.61 mg protein/mL HLM (XTreme 200) in 100 mM phosphate buffer (pH 7.4) at 37° C. on the 96-deep well plate. An aliquot of samples is collected at […], where 0 […] the time when NADPH is added into the reaction mixture. Collected aliquots are extracted with acetonitrile solution containing an internal standard. The precipitated protein is spun down in centrifuge (2000 rpm, […]). The compound concentration in supernatant is measured by LC/MS/MS system.
The half-life value is obtained by plotting the natural logarithm of the peak area ratio of compound/internal standard versus time. The slope of the line of the best fit through the points yields the elimination rate constant (kel). This is converted to a half-life value using a following equation: Half-life=1n2/kel.

T1 sequence (Q92847 whole entry): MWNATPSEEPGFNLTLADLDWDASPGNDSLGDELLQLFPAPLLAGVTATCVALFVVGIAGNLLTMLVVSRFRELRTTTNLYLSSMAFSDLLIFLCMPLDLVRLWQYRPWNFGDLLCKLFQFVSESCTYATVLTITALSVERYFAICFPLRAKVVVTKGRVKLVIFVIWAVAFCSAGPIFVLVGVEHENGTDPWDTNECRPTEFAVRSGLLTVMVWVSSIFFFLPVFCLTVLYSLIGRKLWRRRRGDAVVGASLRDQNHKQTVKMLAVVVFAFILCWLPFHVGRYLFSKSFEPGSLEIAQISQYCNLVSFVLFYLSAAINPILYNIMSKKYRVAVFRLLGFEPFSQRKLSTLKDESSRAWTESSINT

| SMILES | EC50 [1] [nM] | CLint scaled at 1 microM [2] [mL/min/kg] | Ratio of HLM CLint over comparison 1 [2] |
| --- | --- | --- | --- |
| CN1N=C2CCN(C(=O)[C@@H](CCc3ccccc3)NC(=O)C(C)(C)N)C[C@@]2(Cc2ccccc2)C1=O [Example 2, 2-amino-N—((R)-1-((R)-3a-benzyl-2-methyl-3-oxo-3a,4,6,7-tetrahydro-2H-pyrazolo[4,3-c]pyridin-5(3H)-yl)-1-oxo-4-phenylbutan-2-yl)-2-methylpropanamide] | < 20 | 54.5 | 2.4 |
| CN1N=C2CCN(C(=O)[C@@H](CCc3ccc(CO)cc3Cl)NC(=O)C(C)(C)N)C[C@@]2(Cc2ccccc2)C1=O [Example 3, 2-amino-N—((R)-1-((R)-3a-benzyl-2-methyl-3-oxo-3a,4,6,7-tetrahydro-2H-pyrazolo[4,3-c]pyridin-5(3H)-yl)-4-(2-chloro-4-(hydroxymethyl)phenyl)-1-oxobutan-2-yl)-2-methylpropanamide] | < 20 | 43.5 | 3.0 |
| CN1N=C2CCN(C(=O)[C@@H](CCc3ccc(CO)cc3F)NC(=O)C(C)(C)N)C[C@@]2(Cc2ccccc2)C1=O [Example 4, 2-amino-N—((R)-1-((R)-3a-benzyl-2-methyl-3-oxo-3a,4,6,7-tetrahydro-2H-pyrazolo[4,3-c]pyridin-5(3H)-yl)-4-(2-fluoro-4-(hydroxymethyl)phenyl)-1-oxobutan-2-yl)-2-methylpropanamide] | < 20 | 21.7 | 6.0 |
| CN1N=C2CCN(C(=O)[C@@H](CCc3cc(CO)ccc3F)NC(=O)C(C)(C)N)C[C@@]2(Cc2ccccc2)C1=O [Example 5, 2-amino-N—((R)-1-((R)-3a-benzyl-2-methyl-3-oxo-3a,4,6,7-tetrahydro-2H-pyrazolo[4,3-c]pyridin-5(3H)-yl)-4-(2-fluoro-5-(hydroxymethyl)phenyl)-1-oxobutan-2-yl)-2-methylpropanamide] | < 20 | 44.6 | 2.9 |
| CN1N=C2CCN(C(=O)[C@@H](CCCc3cccc(CO)c3)NC(=O)C(C)(C)N)C[C@@]2(Cc2ccccc2)C1=O [Example 7, 2-amino-N—((R)-1-((R)-3a-benzyl-2-methyl-3-oxo-3a,4,6,7-tetrahydro-2H-pyrazolo[4,3-c]pyridin-5(3H)-yl)-5-(3-(hydroxymethyl)phenyl)-1-oxopentan-2-yl)-2-methylpropanamide] | < 20 | 53.5 | 2.4 |
| CN1N=C2CCN(C(=O)[C@@H](CCCc3ccccc3CO)NC(=O)C(C)(C)N)C[C@@]2(Cc2ccccc2)C1=O [Example 8, 2-amino-N—((R)-1-((R)-3a-benzyl-2-methyl-3-oxo-3a,4,6,7-tetrahydro-2H-pyrazolo[4,3-c]pyridin-5(3H)-yl)-5-(2-(hydroxymethyl)phenyl)-1-oxopentan-2-yl)-2-methylpropanamide] | < 20 | 48.5 | 2.7 |
| CN1N=C2CCN(C(=O)[C@@H](CCCc3ccccn3)NC(=O)C(C)(C)N)C[C@@]2(Cc2ccccc2)C1=O [Example 9, 2-amino-N—((R)-1-((R)-3a-benzyl-2-methyl-3-oxo-3a,4,6,7-tetrahydro-2H-pyrazolo[4,3-c]pyridin-5(3H)-yl)-1-oxo-5-(pyridin-2-yl)pentan-2-yl)-2-methylpropanamide] | < 20 | 19.7 | 6.6 |
| CN1N=C2CCN(C(=O)[C@@H](CCCc3cccc(C(F)(F)F)n3)NC(=O)C(C)(C)N)C[C@@]2(Cc2ccccc2)C1=O [Example 10, 2-amino-N—((R)-1-((R)-3a-benzyl-2-methyl-3-oxo-3a,4,6,7-tetrahydro-2H-pyrazolo[4,3-c]pyridin-5(3H)-yl)-1-oxo-5-(6-(trifluoromethyl)pyridin-2-yl)pentan-2-yl)-2-methylpropanamide] | < 20 | 44.2 | 2.9 |
| CN1N=C2CCN(C(=O)[C@@H](CCCc3cccc(C(F)F)n3)NC(=O)C(C)(C)N)C[C@@]2(Cc2ccccc2)C1=O [Example 13, 2-amino-N—((R)-1-((R)-3a-benzyl-2-methyl-3-oxo-3a,4,6,7-tetrahydro-2H-pyrazolo[4,3-c]pyridin-5(3H)-yl)-5-(6-(difluoromethyl)pyridin-2-yl)-1-oxopentan-2-yl)-2-methylpropanamide] | < 20 | 36 | 3.6 |
| CC(C)(N)C(=O)N[C@H](CCc1ccccc1)C(=O)N1CCC2=NN(CC(F)(F)F)C(=O)[C@]2(Cc2ccccn2)C1 [Example 14, 2-amino-2-methyl-N—((R)-1-oxo-1-((R)-3-oxo-3a-(pyridin-2-ylmethyl)-2-(2,2,2-trifluoroethyl)-3a,4,6,7-tetrahydro-2H-pyrazolo[4,3-c]pyridin-5(3H)-yl)-4-phenylbutan-2-yl) propanamide] | < 20 | 51.5 | 2.5 |
| CC(C)(N)C(=O)N[C@H](CCc1ccc(F)cc1CO)C(=O)N1CCC2=NN(CC(F)(F)F)C(=O)[C@]2(Cc2ccccn2)C1 [Example 17, 2-amino-N—((R)-4-(4-fluoro-2-(hydroxymethyl)phenyl)-1-oxo-1-((R)-3-oxo-3a-(pyridin-2-ylmethyl)-2-(2,2,2-trifluoroethyl)-3a,4,6,7-tetrahydro-2H-pyrazolo[4,3-c]pyridin-5(3H)-yl)butan-2-yl)-2-methylpropanamide] | < 20 | 56.7 | 2.3 |
